Reference: patent US6472348B1, “Pyridone derivatives and herbicides” (Kumiai Chemical Industry Co., Ltd., priority 1996, dated 2002)

Test system: Digitaria ciliaris (Di)
Test: Test Example 2: herbicidal effects by upland field soil treatment;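 further: grade of growth control; 5 = at least 90%; 4 = 70 to 90%; 3 = 50 to 70%; 2 = 30 to 50%; 1 = 10 to 30%; 0 = under 10%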
Format: in vivo
Details: 100 g of the active ingredient per 10 ares, evaluated on the 21st day after application
Description: (§1) (Test on Herbicidal Effects by Upland Field Soil Treatment)

Question: How did the “Herbicidal effects Di” value turn out when `CC(C)=CCOc1cc(-c2ccc(C(F)(F)F)n(C)c2=O)c(F)cc1Cl` [1-174] was run?
Answer: 5

Question: With `CN1C(=O)COc2cc(F)c(-c3ccc(C(F)(F)F)n(C)c3=O)cc21` [Compound 2-16] as the compound, how does the “Herbicidal effects Di” value read?
Answer: 5

Test system: barnyardgrass (Ec)
Test: as above
Format: in vivo
Details: 100 g of the active ingredient per 10 ares, evaluated on the 21st day after application
Description: as §1

Question: For `CC(C)=CCOc1cc(-c2ccc(C(F)(F)F)n(C)c2=O)c(F)cc1Cl` [1-174], which “Herbicidal effects Ec” value is on record?
Answer: 5

Question: `CN1C(=O)COc2cc(F)c(-c3ccc(C(F)(F)F)n(C)c3=O)cc21` [Compound 2-16] was tested. Which “Herbicidal effects Ec” value did it give?
Answer: 5

Test system: rice flatsedge (Ci)
Test: as above
Format: in vivo
Details: 100 g of the active ingredient per 10 ares, evaluated on the 21st day after application
Description: as §1

Question: How did the “Herbicidal effects Ci” value turn out when `CC(C)=CCOc1cc(-c2ccc(C(F)(F)F)n(C)c2=O)c(F)cc1Cl` [1-174] was run?
Answer: 5

Question: Which “Herbicidal effects Ci” value does the source give for `CN1C(=O)COc2cc(F)c(-c3ccc(C(F)(F)F)n(C)c3=O)cc21` [Compound 2-16] here?
Answer: 5

Test system: pale smartweed (Po)
Test: as above
Format: in vivo
Details: 100 g of the active ingredient per 10 ares, evaluated on the 21st day after application
Description: as §1

Question: Which “Herbicidal effects Po” value does the source give for `CC(C)=CCOc1cc(-c2ccc(C(F)(F)F)n(C)c2=O)c(F)cc1Cl` [1-174] here?
Answer: 5

Question: `CN1C(=O)COc2cc(F)c(-c3ccc(C(F)(F)F)n(C)c3=O)cc21` [Compound 2-16] was tested. Which “Herbicidal effects Po” value did it give?
Answer: 5

Test system: common lambsquarters (Ch)
Test: as above
Format: in vivo
Details: 100 g of the active ingredient per 10 ares, evaluated on the 21st day after application
Description: as §1

Question: For `CC(C)=CCOc1cc(-c2ccc(C(F)(F)F)n(C)c2=O)c(F)cc1Cl` [1-174], which “Herbicidal effects Ch” value is on record?
Answer: 5

Question: For `CN1C(=O)COc2cc(F)c(-c3ccc(C(F)(F)F)n(C)c3=O)cc21` [Compound 2-16], which “Herbicidal effects Ch” value is on record?
Answer: 5

Test system: slender amaranth (Am)
Test: as above
Format: in vivo
Details: 100 g of the active ingredient per 10 ares, evaluated on the 21st day after application
Description: as §1

Question: Which “Herbicidal effects Am” value does the source give for `CC(C)=CCOc1cc(-c2ccc(C(F)(F)F)n(C)c2=O)c(F)cc1Cl` [1-174] here?
Answer: 5

Question: How did the “Herbicidal effects Am” value turn out when `CN1C(=O)COc2cc(F)c(-c3ccc(C(F)(F)F)n(C)c3=O)cc21` [Compound 2-16] was run?
Answer: 5

Test system: barnyardgrass (Ec)
Test: Test Example 1: herbicidal effects by paddy field soil treatment;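 further: grade of growth control; 5 = at least 90%; 4 = 70 to 90%; 3 = 50 to 70%; 2 = 30 to 50%; 1 = 10 to 30%; 0 = under 10%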
Format: in vivo
Details: 100 g of the active ingredient per 10 ares, 21st day after the application, index 0-5 of Table 47
Summary of the method: (§2)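 Scoring of herbicidal effect came 21 days after application of 100 g active ingredient per 10 ares to flooded (3 cm) paddy-soil pots sown with barnyardgrass, monochoria and bulrush, kept in a greenhouse.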

Question: How did the “Herbicidal effects Ec” value turn out when `CC(C)=CCOc1cc(-c2ccc(C(F)(F)F)n(C)c2=O)c(F)cc1Cl` [1-174] was run?
Answer: 5

Question: Which “Herbicidal effects Ec” value does the source give for `CN1C(=O)COc2cc(F)c(-c3ccc(C(F)(F)F)n(C)c3=O)cc21` [Compound 2-16] here?
Answer: 5

Test system: monochoria (Mo)
Test: as above
Format: in vivo
Details: 100 g of the active ingredient per 10 ares, 21st day after the application, index 0-5 of Table 47
Summary of the method: as §2

Question: For `CC(C)=CCOc1cc(-c2ccc(C(F)(F)F)n(C)c2=O)c(F)cc1Cl` [1-174], which “Herbicidal effects Mo” value is on record?
Answer: 5

Question: Which “Herbicidal effects Mo” value does the source give for `CN1C(=O)COc2cc(F)c(-c3ccc(C(F)(F)F)n(C)c3=O)cc21` [Compound 2-16] here?
Answer: 5

Test system: bulrush (Sc)
Test: as above
Format: in vivo
Details: 100 g of the active ingredient per 10 ares, 21st day after the application, index 0-5 of Table 47
Summary of the method: as §2

Question: How did the “Herbicidal effects Sc” value turn out when `CC(C)=CCOc1cc(-c2ccc(C(F)(F)F)n(C)c2=O)c(F)cc1Cl` [1-174] was run?
Answer: 5

Question: For `CN1C(=O)COc2cc(F)c(-c3ccc(C(F)(F)F)n(C)c3=O)cc21` [Compound 2-16], which “Herbicidal effects Sc” value is on record?
Answer: 5

Test system: barnyardgrass (Ec)
Test: Test Example 3: herbicidal effects by upland field foliage treatment
Format: in vivo
Design: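 grade of growth control; 5 = at least 90%; 4 = 70 to 90%; 3 = 50 to 70%; 2 = 30 to 50%; 1 = 10 to 30%; 0 = under 10%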
Details: 100 g active ingredient per 10 ares, evaluated 14th day after treatment
Summary of the method: (§3)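 Weeds were sown in sand-filled pots (surface area: 120 cm^2), covered with soil and grown in a greenhouse for 2 weeks before foliar treatment. Plants then stayed in the greenhouse, and herbicidal effect was scored against graded standards on the 14th day after treatment.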

Question: `CN1C(=O)COc2cc(F)c(-c3ccc(C(F)(F)F)n(C)c3=O)cc21` [Compound 2-16] was tested. Which “Herbicidal effects Ec” value did it give?
Answer: 5

Same assay, conditions: 100 g of the active ingredient per 10 ares, evaluated on the 14th day after treatment

Question: Which “Herbicidal effects Ec” value does the source give for `CC(C)=CCOc1cc(-c2ccc(C(F)(F)F)n(C)c2=O)c(F)cc1Cl` [1-174] here?
Answer: 5

Test system: rice flatsedge (Ci)
Test: as above
Format: in vivo
Design: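 grade of growth control; 5 = at least 90%; 4 = 70 to 90%; 3 = 50 to 70%; 2 = 30 to 50%; 1 = 10 to 30%; 0 = under 10%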
Details: 100 g active ingredient per 10 ares, evaluated 14th day after treatment
Summary of the method: as §3

Question: How did the “Herbicidal effects Ci” value turn out when `CN1C(=O)COc2cc(F)c(-c3ccc(C(F)(F)F)n(C)c3=O)cc21` [Compound 2-16] was run?
Answer: 5

Same assay, conditions: 100 g of the active ingredient per 10 ares, evaluated on the 14th day after treatment

Question: Which “Herbicidal effects Ci” value does the source give for `CC(C)=CCOc1cc(-c2ccc(C(F)(F)F)n(C)c2=O)c(F)cc1Cl` [1-174] here?
Answer: 5

Test system: pale smartweed (Po)
Test: as above
Format: in vivo
Design: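 grade of growth control; 5 = at least 90%; 4 = 70 to 90%; 3 = 50 to 70%; 2 = 30 to 50%; 1 = 10 to 30%; 0 = under 10%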
Details: 100 g active ingredient per 10 ares, evaluated 14th day after treatment
Summary of the method: as §3

Question: With `CN1C(=O)COc2cc(F)c(-c3ccc(C(F)(F)F)n(C)c3=O)cc21` [Compound 2-16] as the compound, how does the “Herbicidal effects Po” value read?
Answer: 5

Same assay, conditions: 100 g of the active ingredient per 10 ares, evaluated on the 14th day after treatment

Question: For `CC(C)=CCOc1cc(-c2ccc(C(F)(F)F)n(C)c2=O)c(F)cc1Cl` [1-174], which “Herbicidal effects Po” value is on record?
Answer: 5

Test system: common lambsquarters (Ch)
Test: as above
Format: in vivo
Design: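 grade of growth control; 5 = at least 90%; 4 = 70 to 90%; 3 = 50 to 70%; 2 = 30 to 50%; 1 = 10 to 30%; 0 = under 10%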
Details: 100 g active ingredient per 10 ares, evaluated 14th day after treatment
Summary of the method: as §3

Question: For `CN1C(=O)COc2cc(F)c(-c3ccc(C(F)(F)F)n(C)c3=O)cc21` [Compound 2-16], which “Herbicidal effects Ch” value is on record?
Answer: 5

Same assay, conditions: 100 g of the active ingredient per 10 ares, evaluated on the 14th day after treatment

Question: Which “Herbicidal effects Ch” value does the source give for `CC(C)=CCOc1cc(-c2ccc(C(F)(F)F)n(C)c2=O)c(F)cc1Cl` [1-174] here?
Answer: 5

Test system: Diaitaria ciliaris (Di)
Test: as above
Format: in vivo
Design: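 grade of growth control; 5 = at least 90%; 4 = 70 to 90%; 3 = 50 to 70%; 2 = 30 to 50%; 1 = 10 to 30%; 0 = under 10%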
Details: 100 g active ingredient per 10 ares, evaluated 14th day after treatment
Summary of the method: as §3

Question: Which “Herbicidal effects Di” value does the source give for `CN1C(=O)COc2cc(F)c(-c3ccc(C(F)(F)F)n(C)c3=O)cc21` [Compound 2-16] here?
Answer: 5

Same assay, conditions: 100 g of the active ingredient per 10 ares, evaluated on the 14th day after treatment

Question: Which “Herbicidal effects Di” value does the source give for `CC(C)=CCOc1cc(-c2ccc(C(F)(F)F)n(C)c2=O)c(F)cc1Cl` [1-174] here?
Answer: 5

Test system: slender amaranth (Am)
Test: as above
Format: in vivo
Design: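 grade of growth control; 5 = at least 90%; 4 = 70 to 90%; 3 = 50 to 70%; 2 = 30 to 50%; 1 = 10 to 30%; 0 = under 10%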
Details: 100 g active ingredient per 10 ares, evaluated 14th day after treatment
Summary of the method: as §3

Question: How did the “Herbicidal effects Am” value turn out when `CN1C(=O)COc2cc(F)c(-c3ccc(C(F)(F)F)n(C)c3=O)cc21` [Compound 2-16] was run?
Answer: 5

Same assay, conditions: 100 g of the active ingredient per 10 ares, evaluated on the 14th day after treatment

Question: Which “Herbicidal effects Am” value does the source give for `CC(C)=CCOc1cc(-c2ccc(C(F)(F)F)n(C)c2=O)c(F)cc1Cl` [1-174] here?
Answer: 5
